{"source": "patent US20100216825A1", "about": "“FUNGICIDAL COMPOSITIONS” (SYNGENTA CROP PROTECTION, INC., priority 2006, published 2010)", "assay_type_in_all_cases": "cell-based", "key": {"Botrytis cinerea": {"test_system": "Botrytis cinerea", "test": "Action against Botrytis cinerea, growth inhibition in nutrient broth (microtiter plate, photometric)", "details": "24° C., 48-72 hrs"}, "Pyricularia oryzae": {"test_system": "Pyricularia oryzae", "details": "24° C., 72 hrs"}, "Alternaria solani": {"test_system": "Alternaria solani", "test": "Action against Alternaria solani (early blight), growth inhibition in nutrient broth (microtiter plate, photometric)", "details": "24° C., 48 hrs"}, "Pyrenophora teres": {"test_system": "Pyrenophora teres", "test": "Action against Pyrenophora teres (net blotch), growth inhibition in nutrient broth (microtiter plate, photometric)", "details": "24° C., 48 hrs"}, "Pythium ultimum": {"test_system": "Pythium ultimum", "test": "Action against Pythium ultimum (damping off), growth inhibition in nutrient broth (microtiter plate, photometric)", "details": "each active ingredient at 0.67 ppm [mg/L] final medium; 24° C., 48 hrs"}, "[1]": {"details": "each active ingredient at 0.02 ppm [mg/L] final medium"}}, "note": "“And” between values parts separate entries of the source, which are not always exact repeats. Identical values can stand only once. Like-named read-outs stand apart in the source and are kept apart here."}
{"compound": "CC(C)C1C2CCC1c1c(NC(=O)c3cn(C)nc3C(F)F)cccc12", "note": "(racemic) [Cpd I, 3-difluoromethyl-1-methyl-1H-pyrazole-4-carboxylic acid (9-isopropyl-1,2,3,4-tetrahydro-1,4-methano-naphthalen-5-yl)-amide]", "values": [{"measurement": "Observed control in % (% Cobs) observed", "setting": "Botrytis cinerea; [1]", "result": 17, "unit": "%"}, {"measurement": "Observed control in % (% Cobs) observed", "setting": "Botrytis cinerea; each active ingredient at 0.07 ppm [mg/L] final medium", "result": 61, "unit": "%"}, {"measurement": "Observed control in % (% Cobs) observed", "setting": "Botrytis cinerea; each active ingredient at 0.22 ppm [mg/L] final medium", "result": 74, "unit": "%"}, {"measurement": "Observed control in % (% Cobs) observed", "setting": "Botrytis cinerea; each active ingredient at 0.67 ppm [mg/L] final medium", "result": 79, "unit": "%"}, {"measurement": "Observed control in % (% Cobs) observed", "setting": "Pyricularia oryzae; each active ingredient at 0.01 ppm [mg/L] final medium", "result": 11, "unit": "%"}, {"measurement": "Observed control in % (% Cobs) observed", "setting": "Pyricularia oryzae; [1]", "result": 35, "unit": "%"}, {"measurement": "Observed control in % (% Cobs) observed", "setting": "Alternaria solani; each active ingredient at 0.004 ppm [mg/L] final medium", "result": "1% and 2%"}, {"measurement": "Observed control in % (% Cobs) observed", "setting": "Alternaria solani; each active ingredient at 0.008 ppm [mg/L] final medium", "result": "5% and 2%"}, {"measurement": "Observed control in % (% Cobs) observed", "setting": "Alternaria solani; each active ingredient at 0.016 ppm [mg/L] final medium", "result": "9% and 12% and 3%"}, {"measurement": "Observed control in % (% Cobs) observed", "setting": "Alternaria solani; [1]", "result": 46, "unit": "%"}, {"measurement": "Observed control in % (% Cobs) observed", "setting": "Pyrenophora teres; each active ingredient at 0.5 ppm [mg/L] final medium", "result": 70, "unit": "%"}, {"measurement": "Observed control in % (% Cobs) observed", "setting": "Pyrenophora teres; each active ingredient at 1 ppm [mg/L] final medium", "result": 79, "unit": "%"}, {"measurement": "Observed control in % (% Cobs) observed", "setting": "Pythium ultimum", "result": 0, "unit": "%"}]}
